Measured values published in patent publication US11166914B2, “Tumor therapeutic agent and kit containing gemcitabine liposome composition” (FUJIFILM Corporation, priority 2015, dated 2021).
Structures can show the parent of a compound that is named as a salt.

Tests used:
malignant tumors = settings: gemcitabine single agent, cancer patients; N Engl J Med 2013, 369 (18), 1691-1703; cited from earlier work
[1] = gemcitabine single agent; background statement; cited from earlier work
[2] = tested on: Capan-1 cells of a human pancreatic cancer cell strain; test: Pharmacological test on Capan-1 subcutaneous transplantation tumor-bearing mouse model; assay type: in vivo, female nude mouse; settings: single agent, no Abx; Gem 240 mg/kg or composition A 3 mg/kg as gemcitabine; tail vein once a week for 3 weeks from day 17
Experimental: The volume of a tumor was calculated using the following equation by measuring the major axis (a) and the minor axis (b) of the tumor with calipers. (a×b^2)×0.5 (where “a” is the major axis and “b” is the minor axis.) Equation: […]
Gemcitabine (hereinafter, also referred to as Gem), abraxane (hereinafter, also referred to as Abx), and a gemcitabine-contained liposome composition (hereinafter, also referred to as a composition A) were used as test substances.
Gem was prepared by dissolving gemcitabine hydrochloride (manufactured by TEVA) in physiological saline. Abx obtained by dissolving abraxane (manufactured by Celgene) in physiological saline was used. A gemcitabine-contained liposome composition prepared in Reference Example 1 was used.
1×10^7 Capan-1 cells of a human pancreatic cancer cell strain were transplanted subcutaneously into the flank of a female nude mouse to form subcutaneous tumors. The effect of controlling the subcutaneous tumor in combination administration of Abx and the composition A was evaluated using the volume of the tumor as an index. As test substances, a sucrose solution was used as a group 1, Gem was used as a group 2, a composition A was used as a group 3, Abx and Gem were respectively used as a group 4 and a group 5, and Abx and a composition A were respectively used as a group 6 and a group 7. Groups 1 to 5 are comparative examples and groups 6 and 7 are examples. All test substances were administered to the tail vein once a week from day 17 after transplantation for a total of 3 weeks.
Tukey's multiple comparisons test was performed as a statistical analysis, and a P value less than 5% among the groups was determined to indicate that there is a statistically significant difference. Graphpad Prism version 5.03 was used for data processing.

Nc1ccn([C@@H]2O[C@H](CO)[C@@H](O)C2(F)F)c(=O)n1 [Gem, gemcitabine hydrochloride]
Efficiency of single agent to a tumor (malignant tumors): 10%
Median survival period (malignant tumors): 6.7 months
Retention time in blood [1]: 20 min
Number of days until tumor volume average value of 2,000 mm^3 is reached [2]: 52 days
Tumor regression rate from start of medication [2]: N.R.
Tumor volume average value on day 38 after transplantation [2]: 1397^a) mm^3
